Results as given in US20140128352A1, “COMPOUNDS AND METHODS FOR MODULATING MITOCHONDRIAL METABOLISM AND REACTIVE OXYGEN SPECIES PRODUCTION” (Buck Institute for Research on Aging, priority 2012, published 2014).
Entries after “also recorded” stand apart in the source; their conditions may differ. Where two headings read alike, the source gives them in different places.

Assays:
[1] = test system: ubiquinone binding site of complex I (IQ); experiment: High-throughput screen: ROS production from ubiquinone binding site of complex I (IQ), isolated skeletal muscle mitochondria; assay type: biochemical, rat; settings: percent change in ROS from DMSO controls
[2] = target: T1, flavin binding site of complex I (IF) (Rattus norvegicus, UniProt Q5XIH3); experiment: High-throughput screen: ROS production from flavin binding site of complex I (IF); assay type: biochemical
T1 construct: freshly isolated muscle mitochondria were assayed; from tissue; host or cells: rat skeletal muscle mitochondria (Wistar, Harlan Laboratories)
T1 sequence (Q5XIH3 21-464 limits assumed, one chain of several): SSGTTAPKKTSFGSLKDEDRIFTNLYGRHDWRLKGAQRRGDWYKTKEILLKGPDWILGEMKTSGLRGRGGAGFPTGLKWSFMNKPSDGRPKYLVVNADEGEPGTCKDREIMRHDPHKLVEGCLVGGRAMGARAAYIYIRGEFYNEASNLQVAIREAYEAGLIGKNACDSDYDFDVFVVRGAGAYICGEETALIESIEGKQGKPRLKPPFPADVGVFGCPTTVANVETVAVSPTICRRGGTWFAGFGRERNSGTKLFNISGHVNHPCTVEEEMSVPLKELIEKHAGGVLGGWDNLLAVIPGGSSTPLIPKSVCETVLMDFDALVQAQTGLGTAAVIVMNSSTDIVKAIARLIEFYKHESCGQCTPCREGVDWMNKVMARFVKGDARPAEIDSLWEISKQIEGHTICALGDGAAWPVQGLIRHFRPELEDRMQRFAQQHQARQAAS

[3] = target: T2, outer ubiquinone binding site of complex III (IIIQO) (Rattus norvegicus, UniProt P00159+P20788); experiment: High-throughput screen: ROS production from outer ubiquinone binding site of complex III (IIIQO); assay type: biochemical; settings: for IIIQO: Table 8
T2 construct: freshly isolated muscle mitochondria were assayed; from tissue; host or cells: rat skeletal muscle mitochondria (Wistar, Harlan Laboratories)
Protocol: Skeletal muscle mitochondria were isolated from 5-8 week old female Wistar rats (Harlan Laboratories). Minced muscle was homogenized in buffer containing bacterial protease Type VIII prior to differential centrifugation to separate mitochondria from other tissue components. Unless otherwise stated, freshly isolated muscle mitochondria were assayed in buffer containing 120 mM KCl, 5 mM HEPES, 1 mM EGTA, 0.3% (w/v) bovine serum albumin. Where indicated, CaCl2 was added to yield a final free concentration of 250 nM calcium at pH 7.0 at 37° C.
Compounds (10 mM in DMSO) were randomly selected from a library of 24,000 compounds obtained from ChemBridge and curated by the lab of Robert Hughes at the Buck Institute. Master screening plates were prepared using a Biomek FX liquid handling workstation (Beckman) to transfer 1 μL of each compound into individual wells on 96-well storage plates (80 compounds per plate). Master plates were sealed with foil and stored at −80° C. Just prior to use, plates were brought to room temperature and diluted 300-fold with standard buffer (13.3X=33.3 μM). To monitor the performance of each assay throughout screening and to provide intra-plate normalization reference points, DMSO negative controls and known mitochondrial inhibitor positive controls were included on each Master compound plate.
Total amounts of superoxide and H2O2 production were determined fluorometrically as H2O2, without distinguishing between them, in the presence of exogenous superoxide dismutase (25 units/mL final), horseradish peroxidase (1 unit/mL final), and Amplex UltraRed (25 μM final) as described (Affourtit, C. et al. (2012) Measurement of proton leak and electron leak in isolated mitochondria. Methods Mol. Biol. 810: 165-82). Just prior to use, a bulk 3.3X solution was made in standard buffer and distributed into a 2 mL deep well 96-well transfer plate.
To assess the effects of a compound on ROS production from the outer ubiquinone binding site of complex III (IIIQO), Start Solution containing 5 mM succinate, 4 μM rotenone and 2.5 μM antimycin A was distributed into standard 96-well transfer plates. A Biomek FX workstation was programmed to dispense solutions into black 96-well assay plates. Solutions were dispensed to all assay plates in the following order: ROS Detection solution described in Example 3, Mitochondria solution described in Example 1 to a final concentration of 0.1 mg/ml, and Compound dilutions described in Example 2. Duplicate assay plates were made and each was initiated by the addition of 3.3X Start solution containing 5 mM succinate, 4 μM rotenone and 2.5 μM antimycin A. Plates were incubated in the dark at room temperature for 30-40 minutes before acquiring endpoint fluorescence using a Victor 3V plate reader (Perkin Elmer) equipped with 550/590 nm excitation/emission filters.
The fluorescence values in each well were scaled as the percent change from the intra-plate DMSO controls with the appropriate inhibitor positive controls defined as −100%. Following initial scaling, intra-plate normalized values were subjected to Tukey's two-way median polish to remove row and column dependent positional effects (Malo et al., 2006).

[4] = target: T3, succinate dehydrogenase/complex II (SDH) (Rattus norvegicus, UniProt P21913+Q641Z9+Q6PCT8+Q920L2); experiment: High-throughput screen: ROS production from succinate dehydrogenase/complex II (SDH); assay type: biochemical; settings: percent change in ROS from DMSO controls; for inhibition at 2.5 µM: Table 7
T3 construct: freshly isolated muscle mitochondria were assayed; from tissue; host or cells: rat skeletal muscle mitochondria (Wistar, Harlan Laboratories)
T3 sequence (Q920L2 35-656): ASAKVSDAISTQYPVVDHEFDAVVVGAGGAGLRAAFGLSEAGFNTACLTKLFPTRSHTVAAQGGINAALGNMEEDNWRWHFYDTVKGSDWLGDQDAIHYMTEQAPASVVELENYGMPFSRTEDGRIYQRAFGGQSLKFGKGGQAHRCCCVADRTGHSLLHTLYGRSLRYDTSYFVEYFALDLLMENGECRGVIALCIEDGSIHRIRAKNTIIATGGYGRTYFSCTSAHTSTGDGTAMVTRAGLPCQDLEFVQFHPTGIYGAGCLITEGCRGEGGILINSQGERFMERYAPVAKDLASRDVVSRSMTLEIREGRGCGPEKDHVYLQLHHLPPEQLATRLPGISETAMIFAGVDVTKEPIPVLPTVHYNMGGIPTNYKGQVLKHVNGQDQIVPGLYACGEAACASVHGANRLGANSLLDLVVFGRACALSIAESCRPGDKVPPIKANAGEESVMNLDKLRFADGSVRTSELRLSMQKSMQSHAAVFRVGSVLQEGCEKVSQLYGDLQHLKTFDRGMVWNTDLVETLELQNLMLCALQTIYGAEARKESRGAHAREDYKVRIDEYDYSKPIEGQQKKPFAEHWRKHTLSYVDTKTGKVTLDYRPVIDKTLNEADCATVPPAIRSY
T3 sequence (P21913 31-282): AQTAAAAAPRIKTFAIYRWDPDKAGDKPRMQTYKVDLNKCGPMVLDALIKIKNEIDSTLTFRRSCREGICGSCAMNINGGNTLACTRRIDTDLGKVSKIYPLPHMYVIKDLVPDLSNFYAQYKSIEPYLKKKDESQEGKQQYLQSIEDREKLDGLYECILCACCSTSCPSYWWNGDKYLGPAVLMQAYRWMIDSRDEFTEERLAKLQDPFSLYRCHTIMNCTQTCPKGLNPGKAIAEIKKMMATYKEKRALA
T3 sequence (Q641Z9 30-169 limits assumed): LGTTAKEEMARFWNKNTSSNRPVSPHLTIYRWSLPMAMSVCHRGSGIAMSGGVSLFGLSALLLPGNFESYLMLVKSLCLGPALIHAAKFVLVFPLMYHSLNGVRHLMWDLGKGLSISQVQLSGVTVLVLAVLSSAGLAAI
T3 sequence (Q6PCT8 57-159): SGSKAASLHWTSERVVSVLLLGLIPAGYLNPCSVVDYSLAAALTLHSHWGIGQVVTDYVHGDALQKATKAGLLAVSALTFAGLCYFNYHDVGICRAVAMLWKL

[5] = target: T4, glycerol-3-phosphate dehydrogenase (GPDH) (Rattus norvegicus, UniProt P35571); experiment: High-throughput screen: ROS production from glycerol-3-phosphate dehydrogenase (GPDH); assay type: biochemical; design: inhibition: dose or concentration left out as unconfirmed
T4 construct: The activity of GPDH in intact mitochondria (0.3 mg/mL) was measured; from tissue; host or cells: rat skeletal muscle mitochondria (Wistar, Harlan Laboratories)
T4 sequence (P35571 43-727): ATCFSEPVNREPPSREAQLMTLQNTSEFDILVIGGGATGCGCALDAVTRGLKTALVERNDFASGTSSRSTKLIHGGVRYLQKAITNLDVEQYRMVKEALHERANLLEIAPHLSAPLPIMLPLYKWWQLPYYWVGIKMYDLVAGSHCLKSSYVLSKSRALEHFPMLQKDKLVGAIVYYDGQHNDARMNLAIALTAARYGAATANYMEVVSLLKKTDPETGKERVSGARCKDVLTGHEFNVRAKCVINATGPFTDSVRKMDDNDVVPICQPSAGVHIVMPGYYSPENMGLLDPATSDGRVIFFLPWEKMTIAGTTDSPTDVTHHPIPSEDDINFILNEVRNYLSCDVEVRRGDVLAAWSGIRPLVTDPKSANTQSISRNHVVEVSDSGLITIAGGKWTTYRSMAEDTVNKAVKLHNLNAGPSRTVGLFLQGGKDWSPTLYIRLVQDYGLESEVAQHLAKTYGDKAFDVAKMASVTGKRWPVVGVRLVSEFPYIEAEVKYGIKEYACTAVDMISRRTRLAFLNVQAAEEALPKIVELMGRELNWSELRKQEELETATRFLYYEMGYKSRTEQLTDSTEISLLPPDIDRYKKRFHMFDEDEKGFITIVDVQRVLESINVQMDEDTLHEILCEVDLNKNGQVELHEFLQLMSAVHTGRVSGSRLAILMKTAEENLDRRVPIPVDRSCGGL

site IF = target: T5, site IF (Rattus norvegicus, UniProt Q5XIH3); experiment: Retest of IF ROS production (expanded microplate panel); assay type: biochemical
T5 construct: freshly isolated muscle mitochondria were assayed; from tissue; host or cells: rat skeletal muscle mitochondria (Wistar, Harlan Laboratories)
T5 sequence (Q5XIH3 21-464 limits assumed): as the sequence (Q5XIH3 21-464 limits assumed, one chain of several) above
Protocol: Compounds identified as site-selective hits as well as structural analogs were re-sourced from ChemBridge and dissolved in DMSO as 80 mM stocks. Master Titration Plates were prepared manually by serially diluting 80 mM compound stocks between 0.08 and 80 mM on 96-well microplates. Four compounds were titrated in duplicate on each plate. Additional DMSO controls were interspersed across these plates to serve as local normalization controls during analysis since two-way median polishing was not appropriate. Just prior to use, compounds were diluted 100-fold with standard buffer (10X). The same known inhibitor positive controls were included on each plate as during high-throughput screening. The five core ROS assays and single ΔΨm assay were carried out as in the initial high-throughput screen. In addition, several assays were included to help validate the specificity of the compounds for a given site of production. […] The use of different substrates was designed to reveal compounds that disrupt mitochondrial function in a substrate specific manner. […] Most frequently, these changes involved the use of different substrates to supply electrons from an alternative entry point in the chain. If a site of ROS production is being targeted selectively by a compound, then in many cases the supply of electrons should not influence the effectiveness of this compound at suppressing ROS production. […] The fluorescence values in each well were scaled in relation to the intra-plate DMSO and known inhibitor controls as in the high-throughput screen except that median values for local interspersed DMSO wells (3-6 wells) were used rather than just the 8 DMSO wells in columns 1 and 12. This normalization was applied in place of the two-way median polish used during high-throughput screening to minimize row and column effects. […] At this stage, strong candidates were not necessarily excluded from further testing if subtle off-target effects were observed (e.g. loss of specificity or signs of general inhibition at the highest concentrations). Rather, these candidates were often pursued for more detailed mechanistic studies with the expectation that subsequent structure activity analysis would provide insight into which structurally related compounds would provide the optimal specificity for a given site of production.

[6] = test system: mitochondrial membrane potential (ΔΨm); experiment: Membrane potential (ΔΨm) counterscreen with TMRM; settings: malate, nigericin
Protocol: Skeletal muscle mitochondria were isolated from 5-8 week old female Wistar rats (Harlan Laboratories). Minced muscle was homogenized in buffer containing bacterial protease Type VIII prior to differential centrifugation to separate mitochondria from other tissue components. Unless otherwise stated, freshly isolated muscle mitochondria were assayed in buffer containing 120 mM KCl, 5 mM HEPES, 1 mM EGTA, 0.3% (w/v) bovine serum albumin. Where indicated, CaCl2 was added to yield a final free concentration of 250 nM calcium at pH 7.0 at 37° C. Total and free calcium concentrations were calculated using the Extended MaxChelator program at http://maxchelator.stanford.edu.
Compounds were manually transferred from the Master Compound Plate to two black 96-well assay plates. A bulk solution was prepared containing the following components (final concentrations) and manually dispensed into the two ΔΨm assay plates: the potentiometric dye TMRM (5 μM), mitochondria (0.2 mg/mL), glutamate (5 mM), malate (5 mM), and nigericin (80 ng/mL).

GPDH = target: T6, GPDH (Rattus norvegicus, UniProt P35571); experiment: Retest of GPDH ROS production (expanded microplate panel / cuvette); assay type: biochemical; settings: microplate or cuvette
T6 construct: from tissue; host or cells: rat skeletal muscle mitochondria (Wistar, Harlan Laboratories)
T6 sequence (P35571 43-727): T4 sequence (P35571 43-727)
Protocol: Compounds identified as site-selective hits as well as structural analogs were re-sourced from ChemBridge and dissolved in DMSO as 80 mM stocks. Master Titration Plates were prepared manually by serially diluting 80 mM compound stocks between 0.08 and 80 mM on 96-well microplates. Four compounds were titrated in duplicate on each plate. Additional DMSO controls were interspersed across these plates to serve as local normalization controls during analysis since two-way median polishing was not appropriate. Just prior to use, compounds were diluted 100-fold with standard buffer (10X). The same known inhibitor positive controls were included on each plate as during high-throughput screening.
The five core ROS assays and single ΔΨm assay were carried out as in the initial high-throughput screen. In addition, several assays were included to help validate the specificity of the compounds for a given site of production. All compounds were titrated against separate assays targeting IQ ROS and IIIQo ROS using subsaturating (0.5 mM final) succinate. […] Specifically, ΔΨm was monitored separately with 5 mM succinate (in the presence of 4 μM rotenone) in addition to glutamate and malate as before. The use of different substrates was designed to reveal compounds that disrupt mitochondrial function in a substrate specific manner.
Most frequently, these changes involved the use of different substrates to supply electrons from an alternative entry point in the chain. If a site of ROS production is being targeted selectively by a compound, then in many cases the supply of electrons should not influence the effectiveness of this compound at suppressing ROS production. […]
The fluorescence values in each well were scaled in relation to the intra-plate DMSO and known inhibitor controls as in the high-throughput screen except that median values for local interspersed DMSO wells (3-6 wells) were used rather than just the 8 DMSO wells in columns 1 and 12. […]

complex I = experiment: Rate of NAD(P)H reduction via complex I versus observed ROS production; assay type: biochemical, rat
Protocol: To compare candidate IQ ROS inhibitors with mitochondrial inhibitors known to disrupt complex I activity (e.g. rotenone) or oxidize the electron transport chain (e.g. the uncoupler FCCP), the rate of NAD(P)H reduction via complex I was measured when isolated mitochondria were provided with saturating concentrations of the complex II substrate succinate (5 mM) and subsaturating levels of glutamate (1 mM) to facilitate full activation of complex II by oxaloacetate removal. […] These conditions allow electron and proton fluxes through complex Ito reverse and be directed predominantly toward the matrix. Addition of succinate causes a rapid increase in the reduction state of the matrix NAD(P)H pool that can be monitored as described above. The rate of NAD(P)H reduction is therefore a measure of electron flux through complex I for which direct comparisons can be made under identical conditions to effects on rates of ROS production.

[7] = Table 3, 5 mM glutamate, 5 mM malate, 4 μM rotenone, compounds 2.5 μM, percent change from DMSO, positive control −100%, read-out: % Reduction in ROS production (IF)
[8] = Table 7, percent change in ROS from DMSO controls, read-out: IF
[9] = Table 8, percent change in ROS from DMSO controls
[10] = Table 9, percent change in ROS from DMSO controls
[11] = Table 7, percent change in ROS from DMSO controls, read-out: IIIQO
[12] = percent change in ROS from DMSO controls
[13] = Table 9, percent change in ROS from DMSO controls, read-out: IIIQo
[14] = Table 7, percent change in ROS from DMSO controls

Row | Structure (SMILES) | IQ ([1]; Table 7) | IQ ([1]; Table 8) | IQ ([1]; Table 9) | inhibition at 2.5 µM [2, 7] [%] | inhibition at 2.5 µM [2, 8] [%] | IF [2, 9] | IF [2, 10] | inhibition at 2.5 µM [3, 11] [%] | IIIQO [3, 12] | inhibition at 2.5 µM [3, 13] [%] | inhibition at 2.5 µM [4] [%] | SDH ([4]; Table 8) | SDH ([4]; Table 9) | inhibition [5, 14] [%] | GPDH [5, 9] | GPDH [5, 10] | ΔΨm ([6]; Table 8, glutamate) | ΔΨm ([6]; Table 9, glutamate) | effect on GPDH ROS on retesting (GPDH) | also measured
1 | O=C(O)C1CCCCC1C(=O)NC1CCCCCCC1 (stereo not shown) [Compound 30] | −0.7 | −0.7 | −0.7 | 36.9 | 36.9 | −36.9 | −36.9 | -0.1 | 0.1 | -0.1 | -3.3 | 3.3 | 3.3 | -0.7 | 0.7 | 0.7 | −1.0 | −1.0 |  | inhibition at 2.5 µM (site IF; 2.5 μM): 37%
2 | CN(C)CCCN(CCCN(C)C)Cc1cccnc1 [Compound 33] | −0.5 | −0.5 | −0.5 | 3 | 3 | −3.0 | −3.0 | -6.1 | 6.1 | -6.1 |  |  |  | 12.7 | −12.7 | −12.7 | 0.4 | 0.4 |  | effect on IF ROS and selectivity for site IF (site IF): further improved selectivity for IF without compromising ΔΨm
3 | O=C(O)CCC(=O)Nc1ccc(-c2nc3ccccc3o2)cc1 [Compound 50] | 0.8 | 0.8 | 0.8 |  | 2.6 | −2.6 | −2.6 | -2.5 | 2.5 | -2.5 | -2.1 | 2.1 | 2.1 | 12.2 | −12.2 | −12.2 | 0.8 | 0.8 | retested well as selective inhibitors of GPDH ROS | inhibition at 2.5 µM ([5]; Table 6, 25 mM glycerol phosphate, rotenone, antimycin A, malonate, myxothiazol, compounds 2.5 μM, scaled to IQ positive controls, read-out: % Reduction in ROS Production (GPDH)): 12.2%
4 | COc1ccc(/C=C2\C(=O)NC(=S)N(c3ccccc3)C2=O)cc1Br [Compound 52] | −0.2 |  |  |  | 2.2 |  |  |  |  |  | -4.6 |  |  |  |  |  |  |  | did not show any effect on GPDH when retested | inhibition at 2.5 µM ([3]; read-out: IIIQO): 0.4%; inhibition at 2.5 µM ([5]; Table 7, percent change in ROS from DMSO controls, read-out: GPDH): 0%; inhibition at 2.5 µM ([5]; read-out: % Reduction in ROS Production (GPDH)): 14.6%
5 | N#CC(C#N)=NNc1ccc(OC(F)(F)F)cc1 [FCCP] |  |  |  |  |  |  |  |  |  |  |  |  |  |  |  |  |  |  |  | effect on rates of NADH reduction and ROS production (complex I): progressively inhibited both activities; also recorded: suppresses observed ROS to near zero
6 | C=C(C)[C@H]1Cc2c(ccc3c2O[C@@H]2COc4cc(OC)c(OC)cc4[C@@H]2C3=O)O1 [rotenone] |  |  |  |  |  |  |  |  |  |  |  |  |  |  |  |  |  |  |  | effect on rates of NADH reduction and ROS production (complex I; succinate with low glutamate, range of concentrations): progressively inhibited both activities; effect on rates of NADH reduction and ROS production (complex I; succinate with low glutamate, range of concentrations, listed as Rotenone): eliminates all IQ ROS production but not that from underlying IF and IIIQo
